# Assay results as given in PubChem BioAssay (NCI).
#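 Each compound was tested at five concentrations against cells in 96-well plates for 48 hours. At the TGI there is no net growth.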 Peptide text beside a SMILES is read from it. * marks the point of attachment. X26 = Clc1c(Cl)c(Cl)c(O*)c(Cl)c1Cl; Boc = CC(C)(C)OC(=O)*; OBn = c1ccc(CO*)cc1; Bn = c1ccc(C*)cc1
# Columns and labels:
# Assay in all cases: growth of human tumour cells (NCI), 48 h
# 786-0 renal = tested on: 786-0 renal
# A498 renal = tested on: A498 renal
# A549 NSCLC = tested on: A549 NSCLC
# ACHN renal = tested on: ACHN renal
# BT-549 breast = tested on: BT-549 breast
# CAKI-1 renal = tested on: CAKI-1 renal
# CCRF-CEM leukemia = tested on: CCRF-CEM leukemia
# COLO 205 colon = tested on: COLO 205 colon
# DU-145 prostate = tested on: DU-145 prostate
# EKVX NSCLC = tested on: EKVX NSCLC
# HCC-2998 colon = tested on: HCC-2998 colon
# HCT-116 colon = tested on: HCT-116 colon
# HCT-15 colon = tested on: HCT-15 colon
# HL-60(TB) leukemia = tested on: HL-60(TB) leukemia
# HOP-62 NSCLC = tested on: HOP-62 NSCLC
# HOP-92 NSCLC = tested on: HOP-92 NSCLC
# HS 578T breast = tested on: HS 578T breast
# HT29 colon = tested on: HT29 colon
# IGROV1 ovarian = tested on: IGROV1 ovarian
# K-562 leukemia = tested on: K-562 leukemia
# KM12 colon = tested on: KM12 colon
# LOX IMVI melanoma = tested on: LOX IMVI melanoma
# M14 melanoma = tested on: M14 melanoma
# MALME-3M melanoma = tested on: MALME-3M melanoma
# MCF7 breast = tested on: MCF7 breast
# MDA-MB-231 breast = tested on: MDA-MB-231 breast
# MDA-MB-435 = tested on: MDA-MB-435
# MOLT-4 leukemia = tested on: MOLT-4 leukemia
# NCI-H226 lung = tested on: NCI-H226 lung
# NCI-H23 lung = tested on: NCI-H23 lung
# NCI-H460 lung = tested on: NCI-H460 lung
# NCI-H522 lung = tested on: NCI-H522 lung
# NCI/ADR-RES ovarian = tested on: NCI/ADR-RES ovarian
# OVCAR-3 ovarian = tested on: OVCAR-3 ovarian
# OVCAR-4 ovarian = tested on: OVCAR-4 ovarian
# OVCAR-5 ovarian = tested on: OVCAR-5 ovarian
# OVCAR-8 ovarian = tested on: OVCAR-8 ovarian
# PC-3 prostate = tested on: PC-3 prostate
# RPMI-8226 leukemia = tested on: RPMI-8226 leukemia
# RXF 393 renal = tested on: RXF 393 renal
# SF-268 CNS = tested on: SF-268 CNS
# SF-295 CNS = tested on: SF-295 CNS
# SF-539 CNS = tested on: SF-539 CNS
# SK-MEL-2 melanoma = tested on: SK-MEL-2 melanoma
# SK-MEL-28 melanoma = tested on: SK-MEL-28 melanoma
# SK-MEL-5 melanoma = tested on: SK-MEL-5 melanoma
# SK-OV-3 ovarian = tested on: SK-OV-3 ovarian
# SN12C renal = tested on: SN12C renal
# SNB-19 CNS = tested on: SNB-19 CNS
# SNB-75 CNS = tested on: SNB-75 CNS
# SR leukemia = tested on: SR leukemia
# SW-620 colon = tested on: SW-620 colon
# T-47D breast = tested on: T-47D breast
# TK-10 renal = tested on: TK-10 renal
# U251 CNS = tested on: U251 CNS
# UACC-257 melanoma = tested on: UACC-257 melanoma
# UACC-62 melanoma = tested on: UACC-62 melanoma
# UO-31 renal = tested on: UO-31 renal
# MDA-N = tested on: MDA-N
smiles,measurement,setting,value
O=C1CS/C(=N/N=C/c2cn(Cc3ccc(Cl)cc3Cl)c3ccccc23)N1,TGI,786-0 renal,53.2 µM
same,TGI,A498 renal,46.5 µM
same,TGI,A549 NSCLC,> 100 µM
same,TGI,ACHN renal,> 100 µM
same,TGI,BT-549 breast,> 100 µM
same,TGI,CAKI-1 renal,> 100 µM
same,TGI,CCRF-CEM leukemia,56.4 µM
same,TGI,COLO 205 colon,> 100 µM
same,TGI,DU-145 prostate,> 100 µM
same,TGI,EKVX NSCLC,48.5 µM
same,TGI,HCC-2998 colon,92.3 µM
same,TGI,HCT-116 colon,> 100 µM
same,TGI,HCT-15 colon,> 100 µM
same,TGI,HL-60(TB) leukemia,> 100 µM
same,TGI,HOP-62 NSCLC,> 100 µM
same,TGI,HOP-92 NSCLC,> 100 µM
same,TGI,HS 578T breast,83.6 µM
same,TGI,HT29 colon,> 100 µM
same,TGI,IGROV1 ovarian,> 100 µM
same,TGI,K-562 leukemia,> 100 µM
same,TGI,KM12 colon,> 100 µM
same,TGI,LOX IMVI melanoma,> 100 µM
same,TGI,M14 melanoma,> 100 µM
same,TGI,MALME-3M melanoma,> 100 µM
same,TGI,MCF7 breast,61.6 µM
same,TGI,MDA-MB-231 breast,48 µM
same,TGI,MDA-MB-435,> 100 µM
same,TGI,MOLT-4 leukemia,> 100 µM
same,TGI,NCI-H226 lung,> 100 µM
same,TGI,NCI-H23 lung,> 100 µM
same,TGI,NCI-H460 lung,> 100 µM
same,TGI,NCI-H522 lung,> 100 µM
same,TGI,NCI/ADR-RES ovarian,> 100 µM
same,TGI,OVCAR-3 ovarian,> 100 µM
same,TGI,OVCAR-4 ovarian,> 100 µM
same,TGI,OVCAR-5 ovarian,> 100 µM
same,TGI,OVCAR-8 ovarian,30.6 µM
same,TGI,PC-3 prostate,76.8 µM
same,TGI,RPMI-8226 leukemia,> 100 µM
same,TGI,RXF 393 renal,77.2 µM
same,TGI,SF-268 CNS,> 100 µM
same,TGI,SF-295 CNS,> 100 µM
same,TGI,SF-539 CNS,41 µM
same,TGI,SK-MEL-2 melanoma,74.7 µM
same,TGI,SK-MEL-28 melanoma,> 100 µM
same,TGI,SK-MEL-5 melanoma,> 100 µM
same,TGI,SK-OV-3 ovarian,> 100 µM
same,TGI,SN12C renal,70.9 µM
same,TGI,SNB-19 CNS,> 100 µM
same,TGI,SNB-75 CNS,54.4 µM
same,TGI,SR leukemia,> 100 µM
same,TGI,SW-620 colon,> 100 µM
same,TGI,T-47D breast,> 100 µM
same,TGI,TK-10 renal,> 100 µM
same,TGI,U251 CNS,37.2 µM
same,TGI,UACC-257 melanoma,> 100 µM
same,TGI,UACC-62 melanoma,> 100 µM
same,TGI,UO-31 renal,> 100 µM
CN(C)c1ccc(/C=c2/c3ccccc3n3c2cc(-c2ccccc2)[n+]3C)cc1,TGI,786-0 renal,1.34 µM
same,TGI,A498 renal,4.38 µM
same,TGI,A549 NSCLC,2.04 µM
same,TGI,ACHN renal,2.33 µM
same,TGI,CAKI-1 renal,7.65 µM
same,TGI,DU-145 prostate,1.92 µM
same,TGI,HCC-2998 colon,> 100 µM
same,TGI,HCT-116 colon,1.32 µM
same,TGI,HCT-15 colon,3.06 µM
same,TGI,HL-60(TB) leukemia,0.123 µM
same,TGI,HOP-62 NSCLC,1.12 µM
same,TGI,HOP-92 NSCLC,1.01 µM
same,TGI,HT29 colon,0.908 µM
same,TGI,IGROV1 ovarian,0.819 µM
same,TGI,K-562 leukemia,> 100 µM
same,TGI,KM12 colon,0.694 µM
same,TGI,M14 melanoma,1.44 µM
same,TGI,MDA-MB-435,1.12 µM
same,TGI,MDA-N,1.22 µM
same,TGI,NCI-H226 lung,1.07 µM
same,TGI,NCI/ADR-RES ovarian,> 100 µM
same,TGI,OVCAR-4 ovarian,2.1 µM
same,TGI,OVCAR-5 ovarian,2.19 µM
same,TGI,OVCAR-8 ovarian,0.567 µM
same,TGI,PC-3 prostate,1.04 µM
same,TGI,RPMI-8226 leukemia,0.488 µM
same,TGI,SF-268 CNS,1.08 µM
same,TGI,SK-MEL-2 melanoma,0.573 µM
same,TGI,SK-MEL-28 melanoma,1.87 µM
same,TGI,SK-MEL-5 melanoma,0.38 µM
same,TGI,SK-OV-3 ovarian,2 µM
same,TGI,SNB-19 CNS,1.28 µM
same,TGI,SR leukemia,0.658 µM
same,TGI,TK-10 renal,4.53 µM
same,TGI,U251 CNS,1.15 µM
same,TGI,UACC-257 melanoma,1.88 µM
same,TGI,UO-31 renal,2.35 µM
O=C(CC(C(=O)c1cccs1)c1ccc2c(c1)OCO2)c1ccc(Br)cc1 (stereo unspecified),TGI,786-0 renal,> 100 µM
same,TGI,A498 renal,> 100 µM
same,TGI,A549 NSCLC,> 100 µM
same,TGI,ACHN renal,> 100 µM
same,TGI,CAKI-1 renal,> 100 µM
same,TGI,CCRF-CEM leukemia,> 100 µM
same,TGI,COLO 205 colon,> 100 µM
same,TGI,DU-145 prostate,> 100 µM
same,TGI,EKVX NSCLC,> 100 µM
same,TGI,HCC-2998 colon,> 100 µM
same,TGI,HCT-15 colon,> 100 µM
same,TGI,HL-60(TB) leukemia,> 100 µM
same,TGI,HOP-62 NSCLC,> 100 µM
same,TGI,IGROV1 ovarian,> 100 µM
same,TGI,K-562 leukemia,> 100 µM
same,TGI,KM12 colon,> 100 µM
same,TGI,M14 melanoma,> 100 µM
same,TGI,MALME-3M melanoma,> 100 µM
same,TGI,MCF7 breast,> 100 µM
same,TGI,MDA-MB-231 breast,> 100 µM
same,TGI,MDA-MB-435,> 100 µM
same,TGI,MDA-N,> 100 µM
same,TGI,MOLT-4 leukemia,> 100 µM
same,TGI,NCI-H226 lung,> 100 µM
same,TGI,NCI-H23 lung,> 100 µM
same,TGI,NCI-H460 lung,> 100 µM
same,TGI,NCI/ADR-RES ovarian,> 100 µM
same,TGI,OVCAR-4 ovarian,> 100 µM
same,TGI,OVCAR-8 ovarian,> 100 µM
same,TGI,PC-3 prostate,> 100 µM
same,TGI,RPMI-8226 leukemia,> 100 µM
same,TGI,SF-268 CNS,> 100 µM
same,TGI,SF-295 CNS,> 100 µM
same,TGI,SK-MEL-28 melanoma,> 100 µM
same,TGI,SK-MEL-5 melanoma,> 100 µM
same,TGI,SK-OV-3 ovarian,> 100 µM
same,TGI,SN12C renal,> 100 µM
same,TGI,SNB-19 CNS,> 100 µM
same,TGI,SNB-75 CNS,> 100 µM
same,TGI,SR leukemia,> 100 µM
same,TGI,SW-620 colon,> 100 µM
same,TGI,T-47D breast,> 100 µM
same,TGI,TK-10 renal,> 100 µM
same,TGI,U251 CNS,> 100 µM
same,TGI,UACC-257 melanoma,> 100 µM
same,TGI,UACC-62 melanoma,> 100 µM
same,TGI,UO-31 renal,> 100 µM
CC(C)CC(NC(=O)C(CCC(=O)OCc1ccccc1)NC(=O)OC(C)(C)C)C(=O)NC(COCc1ccccc1)C(=O)NC(Cc1ccccc1)C(=O)Oc1c(Cl)c(Cl)c(Cl)c(Cl)c1Cl (stereo unspecified) (Boc-E(OBn)LS(Bn)F-X26; configuration not given here),TGI,786-0 renal,90.7 µM
same,TGI,A549 NSCLC,96 µM
same,TGI,ACHN renal,57.8 µM
same,TGI,CAKI-1 renal,48.4 µM
same,TGI,CCRF-CEM leukemia,74.7 µM
same,TGI,COLO 205 colon,58.5 µM
same,TGI,DU-145 prostate,> 100 µM
same,TGI,EKVX NSCLC,96.2 µM
same,TGI,HCT-116 colon,31.6 µM
same,TGI,HCT-15 colon,51 µM
same,TGI,HOP-92 NSCLC,43.8 µM
same,TGI,HS 578T breast,65.9 µM
same,TGI,HT29 colon,> 100 µM
same,TGI,IGROV1 ovarian,56.3 µM
same,TGI,KM12 colon,47.1 µM
same,TGI,LOX IMVI melanoma,> 100 µM
same,TGI,M14 melanoma,78 µM
same,TGI,MALME-3M melanoma,91.5 µM
same,TGI,MCF7 breast,66.3 µM
same,TGI,MDA-MB-231 breast,34.5 µM
same,TGI,MDA-MB-435,95.3 µM
same,TGI,MDA-N,48.6 µM
same,TGI,MOLT-4 leukemia,54.1 µM
same,TGI,NCI-H23 lung,34.2 µM
same,TGI,NCI-H460 lung,59.8 µM
same,TGI,NCI-H522 lung,51.4 µM
same,TGI,NCI/ADR-RES ovarian,86.8 µM
same,TGI,OVCAR-4 ovarian,> 100 µM
same,TGI,OVCAR-5 ovarian,56.7 µM
same,TGI,OVCAR-8 ovarian,65.5 µM
same,TGI,PC-3 prostate,> 100 µM
same,TGI,RPMI-8226 leukemia,76.6 µM
same,TGI,RXF 393 renal,63.8 µM
same,TGI,SF-268 CNS,> 100 µM
same,TGI,SF-295 CNS,68.1 µM
same,TGI,SK-MEL-2 melanoma,69 µM
same,TGI,SK-MEL-28 melanoma,56.4 µM
same,TGI,SK-MEL-5 melanoma,40.9 µM
same,TGI,SK-OV-3 ovarian,83.8 µM
same,TGI,SN12C renal,90.5 µM
same,TGI,SNB-19 CNS,83 µM
same,TGI,SNB-75 CNS,> 100 µM
same,TGI,SR leukemia,97.9 µM
same,TGI,SW-620 colon,> 100 µM
same,TGI,TK-10 renal,72.1 µM
same,TGI,U251 CNS,43.7 µM
same,TGI,UACC-257 melanoma,66.3 µM
same,TGI,UACC-62 melanoma,44.4 µM
same,TGI,UO-31 renal,50.2 µM
